In the SangsterLogP compilation:

Assay: method code SF, from DOI: 10.1021/jm00226a007, PMID: 817022
Conditions: pH 7.4

Row | Structure (SMILES) | logD
1 | COc1cc(C(=O)NN)ccn1 | -0.1

Assay: method code SF-AS, from DOI: 10.1021/jm00226a007, PMID: 817022
Conditions: pH 7.4

Row | Structure (SMILES) | logD
2 | CCCc1cc(C(=O)NN)ccn1 | 0.63
3 | NNC(=O)c1ccnc([N+](=O)[O-])c1 | -0.76
4 | CCc1cc(C(=O)NN)ccn1 | 0.12
5 | NNC(=O)c1ccnc(Cc2ccccc2)c1 | 1.01
6 | CCN(CC)c1cc(C(=O)NN)ccn1 | 1.12
7 | CC(C)Cc1cc(C(=O)NN)ccn1 | 1.02
8 | NNC(=O)c1ccnc(-c2ccccc2)c1 | 1.36
9 | CCOc1cc(C(=O)NN)ccn1 | 0.48

The next lines start with the values.

Row | logD | Structure (SMILES)
10 | -0.11 | NNC(=O)c1ccnc(F)c1
11 | 0.52 | NNC(=O)c1ccnc(I)c1
12 | -0.98 | NNC(=O)c1ccnc(N)c1
13 | -1.58 | CC(=O)NCc1cc(C(=O)NN)ccn1
14 | 0.25 | NNC(=O)c1ccnc(Br)c1
15 | -0.37 | Cc1cc(C(=O)NN)ccn1
16 | 0.11 | NNC(=O)c1ccnc(Cl)c1
17 | -1.25 | CC(=O)Nc1cc(C(=O)NN)ccn1
